The term IC50 denotes the point on the concentration scale where inhibition reaches its midpoint. A lower IC50 goes with higher potency.

Test [1] is described as follows: Cytotoxicity against human U87MG cells after 72 hrs by MTT assay. The class given is functional, cell-based, U-87MG ATCC. The conditions noted are these: U-87 MG. (Tetrazolium dyes change colour on reduction, which living cells bring about.)
Test [2] deals with HT-29. As to the kind of experiment: Cytotoxicity against human HT-29 cells after 72 hrs by MTT assay. To be noted: HT-29, 72 h.
Test [3] has as its system A549. The test is described as follows: Cytotoxicity against human A549 cells after 72 hrs by MTT assay. The conditions noted are these: A549, 72 h.
Test [4] can be described thus: Cytotoxicity against human MKN45 cells after 72 hrs by MTT assay. To be noted: MKN-45, 72 h.

In the case of `COc1cc2c(Oc3ccc(NC(=O)c4nnn(-c5ccccc5C)c4C)cc3F)ccnc2cc1OCCCN1CCCC1`, the concentration for half-maximal inhibition (IC50) in test [1] was 1600 nM; in test [2], 450 nM; in test [3], 380 nM; in test [4], 270 nM.

For `COc1cc2c(Oc3ccc(NC(=O)c4nnn(-c5ccccc5)c4C)cc3F)ccnc2cc1OCCCN1CCCC1`, the IC50 in test [1] is 1000 nM; in test [2], 130 nM; in test [3], 90 nM; in test [4], 40 nM.

For the molecule `COc1cc2c(Oc3ccc(NC(=O)c4nnn(-c5ccccc5C(F)(F)F)c4C)cc3F)ccnc2cc1OCCCN1CCCC1`, the IC50 in test [1] was 1060 nM; in test [2] it was 200 nM; in test [3], 160 nM; in test [4], 70 nM.

Consider `COc1cc2c(Oc3ccc(NC(=O)c4nnn(-c5ccc(C)cc5)c4C(F)(F)F)cc3F)ccnc2cc1OCCCN1CCCC1`, for which the IC50 in test [2] stood at 550 nM; in test [3] it was 370 nM; in test [4] it was 210 nM.

As to `COc1cc2c(Oc3ccc(NC(=O)c4nnn(-c5ccc(F)c(F)c5)c4C(F)(F)F)cc3F)ccnc2cc1OCCCN1CCCC1`, the IC50 in test [1] came out at 1070 nM; in test [2], 180 nM; in test [3], 170 nM; in test [4], 70 nM.

As to `COc1ccc(-n2nnc(C(=O)Nc3ccc(Oc4ccnc5cc(OCCCN6CCCC6)c(OC)cc45)c(F)c3)c2C(F)(F)F)cc1`, the figures for the 50% inhibitory concentration (IC50) in test [2], in test [3] and in test [4] were 1020 nM, 560 nM and 590 nM, respectively.

As for `COc1cc2c(Oc3ccc(NC(=O)c4nnn(-c5ccccc5C)c4C)cc3F)ccnc2cc1OCCCN1CCOCC1`, the IC50 in test [1] is 1500 nM; in test [2] it was 470 nM; in test [3] it was 320 nM; in test [4], 220 nM.

As for `COc1cc2c(Oc3ccc(NC(=O)c4nnn(-c5ccccc5)c4C)cc3F)ccnc2cc1OCCCN1CCOCC1`, the half-inhibitory concentration (IC50) was 1060 nM in test [1], 180 nM in test [2], 140 nM in test [3] and 60 nM in test [4].

For the molecule `COc1cc2c(Oc3ccc(NC(=O)c4nnn(-c5ccccc5C(F)(F)F)c4C)cc3F)ccnc2cc1OCCCN1CCOCC1`, the IC50 in test [1] was determined as 1010 nM; in test [2] it was 200 nM; in test [3], 180 nM; in test [4], 100 nM.

For the molecule `COc1cc2c(Oc3ccc(NC(=O)c4nnn(-c5ccc(F)cc5)c4C(F)(F)F)cc3F)ccnc2cc1OCCCN1CCOCC1`, the IC50 in test [1] turned out to be 1080 nM; in test [2], 140 nM; in test [3], 130 nM; in test [4] it was 60 nM.

Turning to `COc1cc2c(Oc3ccc(NC(=O)c4nnn(-c5ccc(C)cc5)c4C(F)(F)F)cc3F)ccnc2cc1OCCCN1CCOCC1`, the half-inhibitory concentration (IC50) in test [1] was 2700 nM; in test [2] it was 570 nM; in test [3], 350 nM; in test [4], 620 nM.

On to `COc1cc2c(Oc3ccc(NC(=O)c4nnn(-c5ccccc5C(F)(F)F)c4C(F)(F)F)cc3F)ccnc2cc1OCCCN1CCOCC1`, for which the IC50 in test [1] stood at 1160 nM; in test [2] it was 230 nM; in test [3], 210 nM; in test [4], 90 nM.

For the molecule `COc1cc2c(Oc3ccc(NC(=O)c4nnn(-c5ccc(F)c(F)c5)c4C(F)(F)F)cc3F)ccnc2cc1OCCCN1CCOCC1`, the IC50 in test [1] stood at 1130 nM; in test [2], 230 nM; in test [3] it was 150 nM; in test [4], 50 nM.

As for `COc1ccc(-n2nnc(C(=O)Nc3ccc(Oc4ccnc5cc(OCCCN6CCOCC6)c(OC)cc45)c(F)c3)c2C(F)(F)F)cc1`, the IC50 in test [1] was determined as 2400 nM; in test [2], 1080 nM; in test [3], 640 nM; in test [4] it was 680 nM.

In the case of `COc1cc2c(Oc3ccc(NC(=O)c4nnn(-c5ccccc5C)c4C)cc3F)ccnc2cc1OCCCN1CCCCC1`, the IC50 worked out at 2370 nM in test [1], 450 nM in test [2], 330 nM in test [3] and 160 nM in test [4].

`COc1cc2c(Oc3ccc(NC(=O)c4nnn(-c5ccccc5)c4C)cc3F)ccnc2cc1OCCCN1CCCCC1`: the half-maximal inhibitory concentration (IC50) in test [1] was 1130 nM; in test [2], 120 nM; in test [3], 100 nM; in test [4], 80 nM.

Take `COc1cc2c(Oc3ccc(NC(=O)c4nnn(-c5ccccc5C(F)(F)F)c4C)cc3F)ccnc2cc1OCCCN1CCCCC1`: the IC50 in test [1] stood at 1150 nM; in test [2] it was 200 nM; in test [3], 170 nM; in test [4] it was 90 nM.

Consider `COc1cc2c(Oc3ccc(NC(=O)c4nnn(-c5ccc(F)cc5)c4C(F)(F)F)cc3F)ccnc2cc1OCCCN1CCCCC1`, for which the IC50 in test [1] amounted to 1100 nM; in test [2], 150 nM; in test [3] it was 110 nM; in test [4], 40 nM.

Regarding `COc1cc2c(Oc3ccc(NC(=O)c4nnn(-c5ccc(C)cc5)c4C(F)(F)F)cc3F)ccnc2cc1OCCCN1CCCCC1`, the half-maximal inhibitory concentration (IC50) stood at 2500 nM in test [1], 1250 nM in test [2], 490 nM in test [3] and 230 nM in test [4].

For `COc1cc2c(Oc3ccc(NC(=O)c4nnn(-c5ccccc5Cl)c4C(F)(F)F)cc3F)ccnc2cc1OCCCN1CCCCC1`, the IC50 in test [1] stood at 1200 nM; in test [2], 200 nM; in test [3] it was 190 nM; in test [4], 110 nM.

Consider `COc1cc2c(Oc3ccc(NC(=O)c4nnn(-c5ccc(F)c(F)c5)c4C(F)(F)F)cc3F)ccnc2cc1OCCCN1CCCCC1`, for which the IC50 in test [1] was 1210 nM; in test [2], 180 nM; in test [3], 160 nM; in test [4], 90 nM.

For `COc1ccc(-n2nnc(C(=O)Nc3ccc(Oc4ccnc5cc(OCCCN6CCCCC6)c(OC)cc45)c(F)c3)c2C(F)(F)F)cc1`, the IC50 in test [1] was found to be 2800 nM; in test [2], 1220 nM; in test [3], 890 nM; in test [4], 280 nM.

Turning to `COc1cc2c(Oc3ccc(NC(=O)c4nnn(-c5ccccc5C)c4C)cc3F)ccnc2cc1OCCCN1CCC(C)CC1`, the IC50 worked out at 2160 nM in test [1], 520 nM in test [2], 360 nM in test [3] and 120 nM in test [4].

As to `COc1cc2c(Oc3ccc(NC(=O)c4nnn(-c5ccccc5)c4C)cc3F)ccnc2cc1OCCCN1CCC(C)CC1`, the half-maximal inhibitory concentration (IC50) in test [1] came out at 1240 nM; in test [2], 140 nM; in test [3] it was 110 nM; in test [4] it was 90 nM.

For the molecule `COc1cc2c(Oc3ccc(NC(=O)c4nnn(-c5ccccc5C(F)(F)F)c4C)cc3F)ccnc2cc1OCCCN1CCC(C)CC1`, the IC50 worked out at 1120 nM in test [1], 260 nM in test [2], 180 nM in test [3] and 60 nM in test [4].

Regarding `COc1cc2c(Oc3ccc(NC(=O)c4nnn(-c5ccc(F)cc5)c4C(F)(F)F)cc3F)ccnc2cc1OCCCN1CCC(C)CC1`, the IC50 in test [1] stood at 800 nM; in test [2], 160 nM; in test [3] it was 120 nM; in test [4], 70 nM.

With `COc1cc2c(Oc3ccc(NC(=O)c4nnn(-c5cccc(Br)c5)c4C(F)(F)F)cc3F)ccnc2cc1OCCCN1CCC(C)CC1`, the IC50 was determined as 380 nM in test [2], 350 nM in test [3] and 120 nM in test [4].

On to `COc1ccc(-n2nnc(C(=O)Nc3ccc(Oc4ccnc5cc(OCCCN6CCN(C)CC6)c(OC)cc45)c(F)c3)c2C(F)(F)F)cc1`, for which the half-maximal inhibitory concentration (IC50) in test [2] was 2200 nM; in test [3], 1220 nM; in test [4], 330 nM.

The values are drawn from ChEMBL document CHEMBL3352351 (Bioorg Med Chem, 2014).
